{"source": "patent US7018624B2", "about": "“Delivery of poly(ethylene glycol)-modified molecules from degradable hydrogels” (Debio Recherche Pharmaceutique S.A., priority 1996, dated 2006)", "assay": "Hydrolysis kinetics of the ester linkages of mPEG-O-(CH2)n-COO-mPEG in buffer, followed by HPLC-GPC", "format": "physicochemical", "protocol": "To precisely measure the hydrolysis kinetics of the ester linkages, water-soluble, non-crosslinked mPEG-O—(CH2)n—COO-MPEG was synthesized as in Example 2. Hydrolysis was carried out in buffer solutions (0.1 M) at different pHs and temperatures, and followed by HPLC-GPC (Ultrahydrogel® 250, Waters).", "data": [{"substance": "mPEG-O-(CH2)n-COO-mPEG [CM ester linkage]", "values": [{"measurement": "Hydrolysis half lives of the ester", "setting": "pH 5.5", "value": ">150", "unit": "days"}, {"measurement": "Hydrolysis half lives of the ester", "setting": "pH 8.1", "value": 5, "unit": "days"}]}]}
